In patent publication US20250011686A1, “BIODEGRADABLE CHELATING AGENTS AND METHODS FOR FABRIC CARE” (The Procter & Gamble Company, priority 2023, published 2025):

Key:
Type in all cases: physicochemical
[1] = pKa of chelating agent (Table 1); settings: successive pKa values; for catechin (A)/(B)
Excerpt: Chelation is a type of bonding of ions and molecules to metal ions. It involves the formation or presence of two or more separate coordinate bonds between a ligand and a metal atom. Without being bound by theory, the stain removal effectiveness of a composition comprising one or more chelating agents may depend at least in part on the ability of the chelating agent(s) to bind to iron, which may be present in some stains, such as fruit or beverage stains. Several factors may impact a chelating agent's ability to bind to iron. These factors may include the pKa of the chelating agent compared to the wash pH, and the affinity of the chelating agent to bind with other metals, materials, or compositions in the wash.
Various embodiments may provide or employ a composition that comprises one or more chelating agents having a pKa that is less than the wash pH.

[2] = Calcium binding efficiency, logK(β110) (Table 1); settings: one metal, one ligand, no protons
Excerpt: (§1) The binding efficiencies may be expressed as a binding constant. A binding constant (also called formation constant or stability constant) is an equilibrium constant for the formation of a complex in solution. It is a measure of the strength of the interaction between the reagents that come together to form the complex. As an example, various stains may comprise catechins as shown in Formula 13. In Table 1, the reaction between metals and ligands is described in terms of log K(β110). In this context, K, is the equilibrium constant for the reaction between ligands and metals. The higher K, the more metal is bound. This is illustrated in the following example. β, represents the binding efficiency and receives some subscripts (βmlh) to indicate how many metals (m), ligands (l), and protons (h) respectively are involved.

[3] = Iron binding efficiency, logK(β110) (Table 1); settings: one metal, one ligand, no protons
Excerpt: as §1

Ca^2+ logK(β110) (calcium binding efficiency) ([2]; listed as catechins)	Fe (III) logK(β110) (iron binding efficiency) ([3]; listed as catechins)	Compound	pKa [1]	Ca^2+ logK(β110) (calcium binding efficiency) [2]	Fe (III) logK(β110) (iron binding efficiency) [3]
about 3.5	about 19.2	Oc1cc(O)c2c(c1)OC(c1ccc(O)c(O)c1)C(O)C2 (stereo not shown) [Catechin]	8.7	3.5	19.2
		O=c1cccccc1O [Tropolone, 2-Hydroxycyclohepta-2,4,6-trien-1-one]	6.7	3.1	10.5
		CC(O)(P(=O)(O)O)P(=O)(O)O [HEDP, 1-Hydroxyethylidene-1,1-diphosphonic acid, reference compound]		6.8	14.1
		CC(C)c1cccc(=O)c(O)c1 [Hinokitiol, 2-Hydroxy-6-(propan-2-yl)cyclohepta-2,4,6-trien-1-one]	~7	2.2	12.9
